Data from US8324166B2, “Neuroprotection using NAP-like and SAL-like peptide mimetics” (Ramot at Tel-Aviv University, Ltd., priority 2007, dated 2012).
“And” between values parts separate entries of the source, which are not always exact repeats. Identical values can stand only once. Ends that are not written are not given here.

Assays:
[1] = system: neurons in mixed neuroglial cultures intoxicated with beta-amyloid 1-42; test: MAP2 assay: neuronal survival in mixed neuroglial cultures following beta-amyloid intoxication; format: cell-based, rat
Procedure: Newborn rats were used to prepare cerebral cortical astrocytes cell cultures as described above. After suspending the cells in D1, they were centrifuged at 100 g for 5 minutes and the supernatant discarded. The cell pellet was resuspended in solution D2 containing 5% heat inactivated horse serum (Biological Industries, Beit Haemek, Israel), 0.1% gentamycin, 0.1% penicillin-streptomycin-nystatin, 1% N3 (defined medium components essential for neuronal development in culture, (Romijn HJ, Brain Res., 254:583-9 (1981)]), 15 μg/ml 5′-fluoro-2-deoxyuridine (FUDR, Sigma, Rehovot, Israel), and 3 μg/ml uridine (Sigma, Rehovot, Israel) in DMEM. Cells were counted in a hemocytometer, diluted in D2 and 17,000 cells/well/96 well plate were seeded on 8-day-old astrocytes prepared as described above. The medium was changed the next day to D2 without FUDR and uridine. Cells were allowed to grow for one week at 37° C. 10% CO2 before experiments were performed.
Neuronal survival in neuroglial cultures following beta-amyloid intoxication was assayed using the neuron specific antibody, MAP2. […] The cells were incubated for 5 days in 10% CO2 at 37°C.
5 days after the addition of beta-amyloid and the peptide, the cells were fixed by removing the media from each well and the addition of cold methanol. The cells were left in the refrigerator overnight. The cells were immunostained with anti-MAP2 as previously described (Brooke S M et al., Neurosci. Lett., 267:21-4(1999)): the methanol was removed and the cells were washed 4 times with phosphate buffered saline (PBS). Blocking for non-specific antibody binding was performed by incubating the cells in 5% non-fat milk in PBS overnight at 4° C. The blocking solution was then removed and anti-MAP2(1:1000; Sigma, Rehovot, Israel) was added to each well. The cells were incubated for 30 minutes at room temperature, followed by 4 washes with PBS. Biotinylated anti-mouse IgG (1:200, Vector Laboratories, Burlingame, Calif., USA) was then added to each well, and the cells were incubated for 30 minutes at room temperature followed by 4 washes with PBS. The cells were incubated at room temperature for 30 minutes with the ABC reagent (Vector Laboratories, Burlingame, Calif., USA) prepared according to the manufacturer's protocol and then washed 4 times with PBS. ABTS reagent, prepared according to the manufacturer's protocol (Vector Laboratories, Burlingame, Calif., USA) was then added to each well and the cells were incubated for 20 minutes in the dark at room temperature. The plates were read in an ELISA plate reader at 405nm. As blanks, wells containing untreated cells and no primary antibody were used.

[2] = system: cerebral cortical astrocytes intoxicated with ZnCl2; test: MTS assay: survival of astrocytes following intoxication with ZnCl2; format: cell-based, mice
Procedure: Cell cultures were prepared as previously described (McCarthy KD, de Vellis J., J. Cell Biol., 85:890-902 (1980); Gozes I et al., J. Pharmacol. Exp. Ther., 257:959-66 (1991)). Newborn mice (Harlan Biotech Israel Ltd., Rehovot, Israel) were sacrificed by decapitation and the brain was removed. The cortex was dissected and meninges were removed. The tissue was minced with scissors and placed in Hank's balanced salts solution X1 (HBSS, Biological Industries, Beit Haemek, Israel), 15 mM HEPES Buffer pH 7.3 (Biological Industries, Beit Haemek, Israel) and 0.25% trypsin (Biological Industries, Beit Haemek, Israel) in an incubator at 37° C. 10% CO2 for 20 minutes. The cells were then placed in 8 ml of solution D1 containing 10% heat inactivated fetal calf serum (Biological Industries, Beit Haemek, Israel), 0.1% gentamycin sulphate solution (Biological Industries, Beit Haemek, Israel) and 0.1% penicillin-streptomycin-nystatin solution (Biological Industries, Beit Haemek, Israel) in Dulbecco's modified Eagle's medium (DMEM, Sigma, Rehovot, Israel). The cells were allowed to settle, and were then transferred to a new tube containing 2.5 ml of D1 and triturated using a Pasteur pipette. The process was repeated twice more. Once all the cells were suspended, cell density was determined using a hemocytometer (Neubauer improved, Germany) and 1×10^6 cells/15 ml D1 were inoculated into each 75 cm^2 flask (Corning, Corning, N.Y., USA). Cells were incubated at 37° C. 10% CO2. The medium was changed after 24 hours and cells were grown until confluent (one week).
The flasks containing the cerebral cortical astrocytes were shaken to dislodge residual neurons and oligodendrocytes that may be present. Flasks were then washed with 10 ml cold HBSSx1, HEPES15 mM. 5 ml versene-trypsin solution (BioLab, Jerusalem, Israel) was added to each flask and the flasks were incubated at room temperature for 5 minutes to remove astrocytes. The flasks were then shaken to dislodge the cells. The versene-trypsin solution was neutralized with 5 ml D1. The cell suspension was collected and centrifuged at 100 g for 10 minutes. The supernatant was removed and the cells resuspended in D1. The cells were plated in 96 well plates (Corning, Corning, N.Y., USA) (each flask to 2 plates) and incubated until confluent at 37° C. 10% CO2.
The survival of astrocytes following intoxication with ZnCl2 was tested using the MTS assay. One week after sub-culturing the astrocytes into 96-well plates, the astrocyte growth medium was aspirated and fresh medium containing 200μM ZnCl2 and ascending concentrations of NATLSHIHQ (SEQ ID NO:4) or STPTAIPQ (SEQ ID NO:6)(concentration range: 10^−16-10^−7M) was added to the cells. The cells were incubated for 4 hours in 10% CO2 at 37°C., followed by an MTS assay using Celltiter 96 Aqueous non-radioactive cell proliferation assay (Promega, Madison, WI, USA) which was performed according to the manufacturer's instructions and read in an ELISA plate reader at 490nm.

[3] = system: neurons of the central nervous system; conditions: in vitro assays and in vivo disease models; cited from earlier work
[4] = system: closed head injury in mice; conditions: cited from earlier work
[5] = biological target: beta III tubulin (Homo sapiens, UniProt Q13509); conditions: affinity chromatography; cited from earlier work
Sequence of beta III tubulin (Q13509 whole entry): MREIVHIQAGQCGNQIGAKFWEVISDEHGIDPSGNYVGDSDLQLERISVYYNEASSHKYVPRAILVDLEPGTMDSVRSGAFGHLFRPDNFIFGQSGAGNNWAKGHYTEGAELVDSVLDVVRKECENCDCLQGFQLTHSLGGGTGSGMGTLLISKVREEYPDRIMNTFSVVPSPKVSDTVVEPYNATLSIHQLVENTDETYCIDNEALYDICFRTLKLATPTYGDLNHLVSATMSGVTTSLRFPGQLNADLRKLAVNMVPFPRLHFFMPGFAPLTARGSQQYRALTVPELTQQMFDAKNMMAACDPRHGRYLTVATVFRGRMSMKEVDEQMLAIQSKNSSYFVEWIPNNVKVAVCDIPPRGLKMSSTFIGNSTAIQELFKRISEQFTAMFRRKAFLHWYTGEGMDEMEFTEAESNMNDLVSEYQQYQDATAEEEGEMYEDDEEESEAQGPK
Sequence of beta III tubulin (Q71U36 whole entry partner): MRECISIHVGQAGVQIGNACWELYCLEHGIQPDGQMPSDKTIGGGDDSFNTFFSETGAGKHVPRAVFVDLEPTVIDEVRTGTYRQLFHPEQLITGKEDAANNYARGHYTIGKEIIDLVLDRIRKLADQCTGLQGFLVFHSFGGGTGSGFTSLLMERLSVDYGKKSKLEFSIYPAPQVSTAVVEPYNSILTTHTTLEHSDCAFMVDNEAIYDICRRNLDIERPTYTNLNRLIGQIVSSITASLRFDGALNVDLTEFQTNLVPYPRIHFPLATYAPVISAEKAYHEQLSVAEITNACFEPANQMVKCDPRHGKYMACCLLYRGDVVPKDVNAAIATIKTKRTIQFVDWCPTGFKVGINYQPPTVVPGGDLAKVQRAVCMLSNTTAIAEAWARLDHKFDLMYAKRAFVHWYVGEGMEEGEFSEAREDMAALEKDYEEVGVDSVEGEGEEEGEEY

[6] = system: normal aging rats; conditions: intranasal administration; cited from earlier work
[7] = system: ischemic injury; conditions: after ischemic injury; cited from earlier work
[8] = system: model of fetal alcohol syndrome; conditions: in vivo, ip; cited from earlier work
[9] = in vivo; cited from earlier work
[10] = system: cell cultures exposed to a wide variety of toxins; conditions: against a wide variety of toxins; cited from earlier work
[11] = system: animal models simulating parts of the Alzheimer's disease pathology; conditions: in vivo; cited from earlier work

## STPTAIPQ (synthetic NAP-like peptide)
[1]; MAP2 assay, 5 days, tested 10^−19M to 10^−5M, significance vs negative control in cell
  effective concentrations on neuronal survival: Neurons (25 μM beta-amyloid): 10^−13 M and 10 ^−5 M
[1]; neuroglial cells, beta-amyloid
  activity in neuroprotection assay: active
[2]; MTS assay, 4 hours, tested 10^−16-10^−7M, significance vs negative control in cell
  effective concentrations on astrocyte survival: Astrocytes (200 μM ZnCl2): 10^−7 (p < 0.05) M
[2]; astrocytes, ZnCl2
  activity in neuroprotection assay: active

## SALLRSIPA
[3]
  neuron survival in response to various insults: keep neurons of the central nervous system alive

## Asn-Ala-Pro-Val-Ser-Ile-Pro-Gln [NAP]
[4]
  damage caused by closed head injury: reducing damage
[5]
  interaction with tubulin: specifically interact with beta III tubulin
[6]
  performance in the Morris water maze: improved performance
[7]
  infarct volume and motor function deficits: reduced infarct volume and motor function deficits
[8]
  fetal death after intraperitoneal injection of alcohol: inhibited
[9]
  crossing of the blood-brain barrier: can cross the blood-brain barrier
[10]
  neuroprotective activity in cell cultures: neuroprotective activity at femtomolar concentrations
[11]
  protection in Alzheimer's disease models: protective
